Measured values published in patent US8217035B2, “Pyrimidine derivatives used as PI-3-kinase inhibitors” (Novartis AG, priority 2006, dated 2012).

Tested on: pSer473 Akt in A2780 cells
Test: pSer473 Akt assay to monitor PI3K pathway in A2780 cells (Biological Method 2, MSD)
Format: cell-based
Conditions: Homo sapiens, A2780; inhibition of Akt phosphorylation, Biological Method 2
Procedure: In this method, an assay for measuring the PI3K-mediated pSer473-Akt status after treatment with representative inhibitor compounds of the invention is described.
A2780 cells were cultured in DMEM supplemented with 10% FBS. L-glutamine, sodium pyruvate, and antibiotics. Cells were plated in the same medium at a density of 15,000 cells per well into 96 well tissue culture plates, with outside wells vacant, and allowed to adhere overnight.
Test compounds supplied in DMSO were diluted further into DMSO at 500 times the desired final concentrations before dilution into culture media to 2 times the final concentrations. Equal volumes of 2× compounds were added to the cells in 96 well plates and incubated at 37° C. for one hour. The media and compounds were then removed, the plates chilled and cells lysed in a lysis buffer (150 mM NaCl, 20 mM Tris pH 7.5, 1 mM EDTA, 1 mM EGTA, 1% Triton X-100) supplemented with phosphatase and protease inhibitors. After thorough mixing, lysates were transferred to both pSer473Akt and total Akt assay plates from Meso Scale Discovery (MSD), and incubated overnight with shaking at 4° C.
The assays were read on a SECTOR Imager 6000 instrument (Meso Scale Discovery). Ratios of the signal from pSer473Akt and total Akt assays were used to correct for any variability and the percent inhibition of pSer473Akt from the total signal seen in cells treated with compound versus DMSO alone was calculated and used to determine EC50 values for each compound.

SMILES	EC50
CC(=O)Nc1cc(-c2cnc(N)nc2)nc(N2CCOCC2)n1 [Compound 205]	< 1000 nM
COc1cc(N)ncc1-c1cc(Nc2cnc3ccccc3c2)nc(N2CCOCC2)n1 [Compound 200]	< 1000 nM
COc1ccc2ncc(Nc3cc(-c4ccc(N)nc4)nc(N4CCOCC4)n3)cc2c1 [Compound 211]	< 10000 nM
CN(C)CCOc1ccc(Nc2cc(-c3ccc(N)nc3)nc(N3CCOCC3)n2)cn1 [Compound 198]	< 1000 nM

Same assay, conditions: Homo sapiens; inhibition of Akt phosphorylation, A2780 cells

SMILES	EC50
CC(C)OC(=O)N1CCC(Oc2cc(-c3cnc(N)nc3N)nc(N3CCOCC3)n2)CC1 [Compound 131]	< 1000 nM
Nc1ncc(-c2cc(Nc3cnc4ccccc4c3)nc(N3CCOCC3)n2)c(N)n1 [Compound 147]	< 1000 nM
CS(=O)(=O)N1CCC(Oc2cc(-c3cnc(N)nc3C(F)(F)F)nc(N3CCOCC3)n2)CC1 [Compound 74]	< 1000 nM
CS(=O)(=O)Nc1ncccc1-c1cc(-c2ccc(N)nc2)nc(N2CCOCC2)n1 [Compound 3]	< 1000 nM
Nc1ncc(-c2cc(Nc3ccc4cn[nH]c4c3)nc(N3CCOCC3)n2)cn1 [Compound 135]	< 1000 nM
Nc1ncc(-c2cc(OC3CCN(C(=O)c4ccccc4)CC3)nc(N3CCOCC3)n2)c(N)n1 [Compound 122]	< 1000 nM
Nc1cc(C(F)(F)F)c(-c2cc(Nc3cnc4ccccc4c3)nc(N3CCOCC3)n2)cn1 [Compound 193]	< 1000 nM
CC(C)N1CC[C@@H](Oc2ccc(Nc3cc(-c4cnc(N)cc4C(F)(F)F)nc(N4CCOCC4)n3)cn2)C1 [Compound 86]	< 1000 nM
COc1cncc(-c2cc(-c3cnc(N)nc3)nc(N3CCOCC3)n2)c1 [Compound 57]	< 1000 nM
CS(=O)(=O)c1cccc(-c2cc(-c3cnc(N)cc3C#N)nc(N3CCOCC3)n2)c1 [Compound 92]	< 1000 nM
COc1cccc2ncc(Nc3cc(-c4ccc(N)nc4)nc(N4CCOCC4)n3)cc12 [Compound 156]	< 1000 nM
Nc1ncc(-c2cc(Nc3ccc4c(c3)OCCO4)nc(N3CCOCC3)n2)c(C(F)(F)F)n1 [Compound 164]	< 1000 nM
Nc1cc(C(F)(F)F)c(-c2cc(-c3cncc(OC4CCNCC4)c3)nc(N3CCOCC3)n2)cn1 [Compound 88]	< 1000 nM
CC(C)N1CCC(Oc2cncc(-c3cc(-c4cnc(N)cc4C(F)(F)F)nc(N4CCOCC4)n3)c2)C1 (centres unmarked) [Compound 129]	< 1000 nM
CS(=O)(=O)c1ccc(Nc2cc(-c3ccc(N)nc3)nc(N3CCOCC3)n2)cc1 [Compound 112]	< 1000 nM
CCOc1cc(Nc2cc(-c3ccc(N)nc3)nc(N3CCOCC3)n2)ccn1 [Compound 102]	< 1000 nM
Nc1ncc(-c2cc(Nc3ccc(Oc4ccccc4)nc3)nc(N3CCOCC3)n2)cn1 [Compound 107]	< 1000 nM
Cc1nc(N)ncc1-c1cc(Nc2cnc3ccccc3c2)nc(N2CCOCC2)n1 [Compound 96]	< 1000 nM
Nc1ncc(-c2ccnc(N3CCOCC3)n2)cn1 [Compound 132]	< 1000 nM
N#Cc1cc(N)ncc1-c1cc(N2CCOCC2)nc(N2CCOCC2)n1 [Compound 162]	< 1000 nM
Nc1cc(Cl)c(-c2cc(N3CCOCC3)nc(N3CCOCC3)n2)cn1 [Compound 114]	< 1000 nM
Nc1ncc(-c2cc(N3CCOCC3)nc(N3CCOCC3)n2)c(=O)[nH]1 [Compound 77]	< 1000 nM
Nc1ncc(-c2cc(N3CCOCC3)nc(N3CCOCC3)n2)c(C(F)(F)F)n1 [Compound 85]	< 1000 nM

Tested on: A2780 ovarian cancer cells
Test: Cellular proliferation in A2780 cells, Cell Titer Glo (Biological Method 4)
Format: cell-based
Conditions: Homo sapiens; ovarian cancer cell line A2780
In short: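 Viability after 72 h compound exposure (37 °C, 5% CO2) was read by Cell Titer Glo and an EC50 derived, each condition in duplicate. A2780 ovarian cells had been plated at 1,000 per well in DMEM/10% FBS at least 2 h beforehand.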

SMILES	EC50
CC(C)OC(=O)N1CCC(Oc2cc(-c3cnc(N)nc3N)nc(N3CCOCC3)n2)CC1 [Compound 131]	< 1000 nM
Nc1ncc(-c2cc(Nc3cnc4ccccc4c3)nc(N3CCOCC3)n2)c(N)n1 [Compound 147]	< 1000 nM
CS(=O)(=O)N1CCC(Oc2cc(-c3cnc(N)nc3C(F)(F)F)nc(N3CCOCC3)n2)CC1 [Compound 74]	< 1000 nM
CS(=O)(=O)Nc1ncccc1-c1cc(-c2ccc(N)nc2)nc(N2CCOCC2)n1 [Compound 3]	< 1000 nM
Nc1ncc(-c2cc(Nc3ccc4cn[nH]c4c3)nc(N3CCOCC3)n2)cn1 [Compound 135]	< 1000 nM
Nc1ncc(-c2cc(OC3CCN(C(=O)c4ccccc4)CC3)nc(N3CCOCC3)n2)c(N)n1 [Compound 122]	< 1000 nM
Nc1cc(C(F)(F)F)c(-c2cc(Nc3cnc4ccccc4c3)nc(N3CCOCC3)n2)cn1 [Compound 193]	< 1000 nM
CC(C)N1CC[C@@H](Oc2ccc(Nc3cc(-c4cnc(N)cc4C(F)(F)F)nc(N4CCOCC4)n3)cn2)C1 [Compound 86]	< 1000 nM
COc1cncc(-c2cc(-c3cnc(N)nc3)nc(N3CCOCC3)n2)c1 [Compound 57]	< 1000 nM
CS(=O)(=O)c1cccc(-c2cc(-c3cnc(N)cc3C#N)nc(N3CCOCC3)n2)c1 [Compound 92]	< 1000 nM
COc1cccc2ncc(Nc3cc(-c4ccc(N)nc4)nc(N4CCOCC4)n3)cc12 [Compound 156]	< 1000 nM
Nc1ncc(-c2cc(Nc3ccc4c(c3)OCCO4)nc(N3CCOCC3)n2)c(C(F)(F)F)n1 [Compound 164]	< 1000 nM
Nc1cc(C(F)(F)F)c(-c2cc(-c3cncc(OC4CCNCC4)c3)nc(N3CCOCC3)n2)cn1 [Compound 88]	< 10000 nM
CC(C)N1CCC(Oc2cncc(-c3cc(-c4cnc(N)cc4C(F)(F)F)nc(N4CCOCC4)n3)c2)C1 (centres unmarked) [Compound 129]	< 10000 nM
CS(=O)(=O)c1ccc(Nc2cc(-c3ccc(N)nc3)nc(N3CCOCC3)n2)cc1 [Compound 112]	< 10000 nM
CCOc1cc(Nc2cc(-c3ccc(N)nc3)nc(N3CCOCC3)n2)ccn1 [Compound 102]	< 1000 nM
Nc1ncc(-c2cc(Nc3ccc(Oc4ccccc4)nc3)nc(N3CCOCC3)n2)cn1 [Compound 107]	< 10000 nM
Cc1nc(N)ncc1-c1cc(Nc2cnc3ccccc3c2)nc(N2CCOCC2)n1 [Compound 96]	< 1000 nM
Nc1ncc(-c2ccnc(N3CCOCC3)n2)cn1 [Compound 132]	< 10000 nM
N#Cc1cc(N)ncc1-c1cc(N2CCOCC2)nc(N2CCOCC2)n1 [Compound 162]	< 1000 nM
Nc1cc(Cl)c(-c2cc(N3CCOCC3)nc(N3CCOCC3)n2)cn1 [Compound 114]	< 10000 nM
Nc1ncc(-c2cc(N3CCOCC3)nc(N3CCOCC3)n2)c(=O)[nH]1 [Compound 77]	< 1000 nM
Nc1ncc(-c2cc(N3CCOCC3)nc(N3CCOCC3)n2)c(C(F)(F)F)n1 [Compound 85]	< 1000 nM

Same assay, conditions: Homo sapiens; ovarian cancer cell line A2780, Biological Method 4

SMILES	EC50
CC(=O)Nc1cc(-c2cnc(N)nc2)nc(N2CCOCC2)n1 [Compound 205]	< 10000 nM
COc1cc(N)ncc1-c1cc(Nc2cnc3ccccc3c2)nc(N2CCOCC2)n1 [Compound 200]	< 1000 nM
COc1ccc2ncc(Nc3cc(-c4ccc(N)nc4)nc(N4CCOCC4)n3)cc2c1 [Compound 211]	< 1000 nM

Molecular target: PI3 kinase alpha (Homo sapiens, UniProt P42336)
Sequence (P42336 whole entry): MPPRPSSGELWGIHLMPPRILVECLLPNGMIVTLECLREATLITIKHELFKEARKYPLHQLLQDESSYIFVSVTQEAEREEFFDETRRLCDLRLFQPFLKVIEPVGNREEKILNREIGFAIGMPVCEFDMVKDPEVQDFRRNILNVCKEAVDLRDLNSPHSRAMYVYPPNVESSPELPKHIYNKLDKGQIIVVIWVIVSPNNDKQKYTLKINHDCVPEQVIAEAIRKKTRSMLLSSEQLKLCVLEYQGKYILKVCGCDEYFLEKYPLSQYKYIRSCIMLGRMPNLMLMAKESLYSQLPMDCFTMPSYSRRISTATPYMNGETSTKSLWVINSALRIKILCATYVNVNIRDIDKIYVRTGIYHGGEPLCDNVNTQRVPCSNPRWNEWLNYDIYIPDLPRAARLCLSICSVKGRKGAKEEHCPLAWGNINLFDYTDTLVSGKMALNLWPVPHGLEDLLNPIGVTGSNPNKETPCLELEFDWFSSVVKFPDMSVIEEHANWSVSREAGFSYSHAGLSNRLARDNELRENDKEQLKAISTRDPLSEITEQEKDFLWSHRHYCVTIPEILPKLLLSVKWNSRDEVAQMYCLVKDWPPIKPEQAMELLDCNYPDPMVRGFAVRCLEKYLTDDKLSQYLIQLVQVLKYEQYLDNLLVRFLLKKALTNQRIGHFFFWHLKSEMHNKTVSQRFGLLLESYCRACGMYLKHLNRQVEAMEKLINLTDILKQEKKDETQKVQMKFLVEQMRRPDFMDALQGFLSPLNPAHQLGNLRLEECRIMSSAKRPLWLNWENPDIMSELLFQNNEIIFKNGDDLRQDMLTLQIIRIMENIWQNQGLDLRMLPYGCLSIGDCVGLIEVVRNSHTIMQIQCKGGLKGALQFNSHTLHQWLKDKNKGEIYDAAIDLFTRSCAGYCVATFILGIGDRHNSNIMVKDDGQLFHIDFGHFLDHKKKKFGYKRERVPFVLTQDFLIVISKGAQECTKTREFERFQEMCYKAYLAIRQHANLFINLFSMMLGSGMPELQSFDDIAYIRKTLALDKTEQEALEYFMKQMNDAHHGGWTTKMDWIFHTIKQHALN
Sequence (P27986 whole entry partner): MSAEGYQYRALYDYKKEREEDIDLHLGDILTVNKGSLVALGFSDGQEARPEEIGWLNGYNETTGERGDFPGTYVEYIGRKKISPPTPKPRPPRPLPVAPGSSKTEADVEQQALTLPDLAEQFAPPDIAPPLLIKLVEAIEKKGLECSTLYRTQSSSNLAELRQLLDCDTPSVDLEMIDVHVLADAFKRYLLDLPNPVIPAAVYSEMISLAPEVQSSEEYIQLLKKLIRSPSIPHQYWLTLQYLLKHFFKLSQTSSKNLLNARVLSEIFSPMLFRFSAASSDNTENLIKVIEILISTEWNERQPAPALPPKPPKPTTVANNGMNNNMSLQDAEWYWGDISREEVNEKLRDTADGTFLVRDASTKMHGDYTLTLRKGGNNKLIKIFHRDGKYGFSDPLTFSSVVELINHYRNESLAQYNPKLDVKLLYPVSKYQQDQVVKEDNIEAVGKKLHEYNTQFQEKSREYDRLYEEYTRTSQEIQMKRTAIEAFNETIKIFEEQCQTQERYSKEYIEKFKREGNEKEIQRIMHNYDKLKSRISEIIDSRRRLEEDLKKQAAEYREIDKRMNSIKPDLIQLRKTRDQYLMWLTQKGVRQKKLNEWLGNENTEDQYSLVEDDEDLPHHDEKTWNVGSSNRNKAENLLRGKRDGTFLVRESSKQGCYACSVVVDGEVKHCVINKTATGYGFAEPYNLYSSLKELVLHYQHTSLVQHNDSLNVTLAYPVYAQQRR
Test: PI3K ATP depletion assay (Biological Method 1, Assay 3; KinaseGlo luminescence)
Format: biochemical
Conditions: ATP depletion assay, Biological Method 1; read-out: PI3 Kinase Alpha, IC50
In short: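 Compound in DMSO was mixed with 10 nM PI3 kinase and 5 μg/mL phosphatidylinositol, and the reaction was started with 2 μM ATP. It ran to about 50% ATP depletion and was stopped with KinaseGlo.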

SMILES	IC50
CC(=O)Nc1cc(-c2cnc(N)nc2)nc(N2CCOCC2)n1 [Compound 205]	< 1000 nM
COc1cc(N)ncc1-c1cc(Nc2cnc3ccccc3c2)nc(N2CCOCC2)n1 [Compound 200]	< 1000 nM
COc1ccc2ncc(Nc3cc(-c4ccc(N)nc4)nc(N4CCOCC4)n3)cc2c1 [Compound 211]	< 1000 nM
CN(C)CCOc1ccc(Nc2cc(-c3ccc(N)nc3)nc(N3CCOCC3)n2)cn1 [Compound 198]	< 1000 nM

Same assay, conditions: ATP depletion assay; read-out: PI3 Kinase Alpha, IC50

SMILES	IC50
CC(C)OC(=O)N1CCC(Oc2cc(-c3cnc(N)nc3N)nc(N3CCOCC3)n2)CC1 [Compound 131]	< 1000 nM
CS(=O)(=O)N1CCC(Oc2cc(-c3cnc(N)nc3C(F)(F)F)nc(N3CCOCC3)n2)CC1 [Compound 74]	< 1000 nM
CS(=O)(=O)Nc1ncccc1-c1cc(-c2ccc(N)nc2)nc(N2CCOCC2)n1 [Compound 3]	< 1000 nM
Nc1ncc(-c2cc(Nc3ccc4cn[nH]c4c3)nc(N3CCOCC3)n2)cn1 [Compound 135]	< 1000 nM
Nc1ncc(-c2cc(OC3CCN(C(=O)c4ccccc4)CC3)nc(N3CCOCC3)n2)c(N)n1 [Compound 122]	< 1000 nM
CC(C)N1CC[C@@H](Oc2ccc(Nc3cc(-c4cnc(N)cc4C(F)(F)F)nc(N4CCOCC4)n3)cn2)C1 [Compound 86]	< 1000 nM
COc1cncc(-c2cc(-c3cnc(N)nc3)nc(N3CCOCC3)n2)c1 [Compound 57]	< 1000 nM
CS(=O)(=O)c1cccc(-c2cc(-c3cnc(N)cc3C#N)nc(N3CCOCC3)n2)c1 [Compound 92]	< 1000 nM
COc1cccc2ncc(Nc3cc(-c4ccc(N)nc4)nc(N4CCOCC4)n3)cc12 [Compound 156]	< 1000 nM
Nc1ncc(-c2cc(Nc3ccc4c(c3)OCCO4)nc(N3CCOCC3)n2)c(C(F)(F)F)n1 [Compound 164]	< 1000 nM
Nc1cc(C(F)(F)F)c(-c2cc(-c3cncc(OC4CCNCC4)c3)nc(N3CCOCC3)n2)cn1 [Compound 88]	< 1000 nM
CC(C)N1CCC(Oc2cncc(-c3cc(-c4cnc(N)cc4C(F)(F)F)nc(N4CCOCC4)n3)c2)C1 (centres unmarked) [Compound 129]	< 1000 nM
CS(=O)(=O)c1ccc(Nc2cc(-c3ccc(N)nc3)nc(N3CCOCC3)n2)cc1 [Compound 112]	< 1000 nM
CCOc1cc(Nc2cc(-c3ccc(N)nc3)nc(N3CCOCC3)n2)ccn1 [Compound 102]	< 1000 nM
